How the values were obtained:
BJAB = assay: Growth inhibition of human BJAB cells assessed as cell viability at 20 nM after 48 hrs by MTT assay (reference value: 100%)
Histone deacetylase 3 = Histone deacetylase 3 (Homo sapiens, UniProt O15379)
A549 = assay: Growth inhibition of human A549 cells after 48 hrs by SRB assay; type: functional, cell-based; conditions: A549, 48 h

Sequence of Histone deacetylase 3 (O15379 whole entry): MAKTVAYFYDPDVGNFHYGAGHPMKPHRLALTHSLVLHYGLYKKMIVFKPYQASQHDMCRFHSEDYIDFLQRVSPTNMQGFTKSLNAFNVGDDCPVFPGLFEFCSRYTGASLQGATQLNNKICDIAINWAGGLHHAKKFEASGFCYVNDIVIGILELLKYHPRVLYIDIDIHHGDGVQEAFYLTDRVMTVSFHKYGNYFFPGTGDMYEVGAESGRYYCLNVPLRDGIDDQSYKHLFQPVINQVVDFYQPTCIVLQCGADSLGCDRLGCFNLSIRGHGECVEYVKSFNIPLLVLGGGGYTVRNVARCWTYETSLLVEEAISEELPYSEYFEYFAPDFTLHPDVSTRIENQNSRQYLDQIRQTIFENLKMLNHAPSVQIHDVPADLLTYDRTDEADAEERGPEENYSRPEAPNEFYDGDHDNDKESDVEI

- IC50 (Histone deacetylase 3): Not Active
- IC50 (A549): 79 nM
SMILES: COc1ccc(S(=O)(=O)N2CCc3cccc(NCc4ccc(C(=O)Nc5ccccc5N)cc4)c32)cc1
- viability at 0.02 µM (BJAB): 70%
